B2: E. coli methionine S-adenosyltransferase (MAT), recombinant, C-terminal His6 (enzyme, E. coli MG1655, UniProt P0A817 1-384, looked up)
chain: MAKHLFTSESVSEGHPDKIADQISDAVLDAILEQDPKARVACETYVKTGMVLVGGEITTSAWVDIEEITRNTVREIGYVHSDMGFDANSCAVLSAIGKQSPDINQGVDRADPLEQGAGDQGLMFGYATNETDVLMPAPITYAHRLVQRQAEVRKNGTLPWLRPDAKSQVTFQYDDGKIVGIDAVVLSTQHSEEIDQKSLQEAVMEEIIKPILPAEWLTSATKFFINPTGRFVIGGPMGDCGLTGRKIIVDTYGGMARHGGGAFSGKDPSKVDRSAAYAARYVAKNIVAAGLADRCEIQVSYAIGVAEPTSIMVETFGTEKVPSEQLTLLVREFFDLRPYGLIQMLDLLHPIYKETAAYGHFGREHFPWEKTDKAQLLRDAAGLK
notes: Homotetramer (dimer of dimers); also called EcMAT; E. coli MAT; source: E. coli BL21(DE3) (pET24a), purified (Ni-NTA, SEC)

Series [1] addresses T1, E. coli MAT (EcMAT) (Escherichia coli, UniProt P0A817, D132P/V133T/I178V/I211V/A214P, form not given).
T1 construct: gene metK; C-terminal His6 tag, full length, pET24a, BL21(DE3); homotetramer (dimer of dimers), ~43 kDa subunit
Briefly: HPLC (SCX, […] nm) of SAM / MTA formation. Particulars: mutant EcMAT; methionine as co-substrate; pH 7.5, 10 mM MgCl2, 37°C; W26L as printed (position doubtful, probably W216L). In kind it is biochemical.

The target in series [2] is T2, E. coli MAT (EcMAT) (Escherichia coli, UniProt P0A817).
T2 construct: gene metK; C-terminal His6 tag, full length, pET24a, BL21(DE3); homotetramer (dimer of dimers), ~43 kDa subunit
T2 sequence (P0A817 2-384): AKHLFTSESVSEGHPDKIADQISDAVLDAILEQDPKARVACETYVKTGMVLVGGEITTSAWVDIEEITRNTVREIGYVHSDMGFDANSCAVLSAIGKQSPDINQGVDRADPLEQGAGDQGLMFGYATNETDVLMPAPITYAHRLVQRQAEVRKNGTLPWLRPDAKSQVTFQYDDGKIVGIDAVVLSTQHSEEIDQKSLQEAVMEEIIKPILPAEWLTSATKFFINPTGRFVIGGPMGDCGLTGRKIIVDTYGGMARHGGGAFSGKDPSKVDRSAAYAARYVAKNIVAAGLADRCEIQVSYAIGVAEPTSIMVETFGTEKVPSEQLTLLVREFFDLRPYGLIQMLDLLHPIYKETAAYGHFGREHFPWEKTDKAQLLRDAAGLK
Briefly: HPLC (SCX, […] nm) of SAM formation. In kind it is biochemical. Particulars: 80 μM ATP, 1 mM methionine, 250 nM enzyme; 25 mM HEPES pH 7.5, 100 mM KCl, 10 mM MgCl2, 1 mM DTT; 37°C; no SAMase.

The target in a further series is T3, N. gonorrhea MAT (NgMAT) (Neisseria gonorrhoeae, UniProt Q5FAC0).
T3 construct: gene metK
T3 sequence (Q5FAC0 1-389): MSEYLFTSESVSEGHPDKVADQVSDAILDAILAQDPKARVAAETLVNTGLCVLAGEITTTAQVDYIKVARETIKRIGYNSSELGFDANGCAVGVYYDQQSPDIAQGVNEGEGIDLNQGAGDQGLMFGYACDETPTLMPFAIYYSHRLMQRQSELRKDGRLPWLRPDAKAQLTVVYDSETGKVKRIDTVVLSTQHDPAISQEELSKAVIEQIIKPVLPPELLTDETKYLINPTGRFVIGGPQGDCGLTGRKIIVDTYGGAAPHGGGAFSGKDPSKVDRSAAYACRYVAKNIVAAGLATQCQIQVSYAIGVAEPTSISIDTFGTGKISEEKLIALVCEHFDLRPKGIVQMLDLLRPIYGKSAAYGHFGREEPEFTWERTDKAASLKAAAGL
Nature of the series: HPLC (SCX, […] nm) of SAM / MTA formation. In kind it is biochemical. Particulars: 80 μM ATP, 1 mM methionine, 250 nM enzyme; pH 7.5, 10 mM MgCl2, 37°C.

The target of series [3] is T4, U. urealyticum MAT (UuMAT) (Ureaplasma urealyticum, UniProt A0ABM9XK24).
T4 construct: gene metK
T4 sequence (A0ABM9XK24 1-376): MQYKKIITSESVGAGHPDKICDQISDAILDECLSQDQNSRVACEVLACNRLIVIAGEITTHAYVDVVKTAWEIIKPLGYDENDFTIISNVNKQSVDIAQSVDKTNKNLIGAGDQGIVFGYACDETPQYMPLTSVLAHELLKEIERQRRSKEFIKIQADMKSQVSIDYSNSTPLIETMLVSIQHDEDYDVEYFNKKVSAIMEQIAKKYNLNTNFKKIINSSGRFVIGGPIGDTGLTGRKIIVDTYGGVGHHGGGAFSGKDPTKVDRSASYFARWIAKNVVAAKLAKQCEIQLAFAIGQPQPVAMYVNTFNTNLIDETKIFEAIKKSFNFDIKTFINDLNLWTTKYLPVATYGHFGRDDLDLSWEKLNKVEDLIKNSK
Briefly: HPLC (SCX, […] nm) of SAM / MTA formation. In kind it is biochemical. Particulars: 80 μM ATP, 1 mM methionine, 250 nM enzyme; pH 7.5, 10 mM MgCl2, 37°C.

Series [4] concerns the molecule itself. Nature of the series: SEC; SAMase alone on Superdex 200 Increase 10/300 GL against protein standards; natively purified and refolded SAMase; 25 mM Tris pH 8.0, 150 mM KCl, 1 mM DTT.
In series [5] the target is B2. Nature of the series: cryo-EM structure; refolded SAMase and E. coli MAT mixed 1:1 (160 μM monomer each) with 500 μM SAM, preincubated 48 h, high-molecular-weight SEC peak; single-particle, no symmetry imposed (C1). Particulars: both partners purified.
Series [6] concerns the molecule itself. Described as above.

T1 sequence (P0A817 2-384 D132P/V133T/I178V/I211V/A214P, form open): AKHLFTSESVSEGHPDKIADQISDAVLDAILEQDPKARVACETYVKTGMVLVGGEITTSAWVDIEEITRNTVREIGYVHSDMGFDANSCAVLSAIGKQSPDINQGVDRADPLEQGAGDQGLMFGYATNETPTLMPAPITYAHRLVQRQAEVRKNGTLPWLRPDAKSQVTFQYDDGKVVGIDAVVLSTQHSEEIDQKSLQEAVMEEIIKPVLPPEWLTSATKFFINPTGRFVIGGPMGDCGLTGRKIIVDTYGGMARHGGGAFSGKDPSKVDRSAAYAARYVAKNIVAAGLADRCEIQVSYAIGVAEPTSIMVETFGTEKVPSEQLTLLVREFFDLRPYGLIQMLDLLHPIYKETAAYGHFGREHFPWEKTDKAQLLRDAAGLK

Consider `Nc1ncnc2c1ncn2[C@@H]1O[C@H](COP(=O)(O)OP(=O)(O)OP(=O)(O)O)[C@@H](O)[C@H]1O` [ATP], for which the “HPLC (SCX, 254 nm) of SAM / MTA formation” value on E. coli MAT (EcMAT) [1] is “mutant E. coli MAT (EcMAT mut) was measured either alone (blue trace, rate of SAM production”; on N. gonorrhea MAT (NgMAT) it was “Synthesis of SAM from ATP and methionine of MAT proteins was conducted”; in series [3] it was “Synthesis of SAM from ATP and methionine of MAT proteins was conducted”. The “HPLC (SCX, 254 nm) of SAM formation” value at E. coli MAT (EcMAT) [2] was “Synthesis of SAM from ATP and methionine by E. coli MAT was conducted in the absence”.
Consider `CSCC[C@H](N)C(=O)O` [methionine], for which, on E. coli MAT (EcMAT) [2], the “HPLC (SCX, 254 nm) of SAM formation” value was “Synthesis of SAM from ATP and methionine by E. coli MAT was conducted in the absence”. Further, the “HPLC (SCX, 254 nm) of SAM / MTA formation” value was “Synthesis of SAM from ATP and methionine of MAT proteins was conducted” on N. gonorrhea MAT (NgMAT); “Synthesis of SAM from ATP and methionine of MAT proteins was conducted” in series [3].

B1: S-Adenosylmethionine lyase (SAMase) of bacteriophage T3, C-terminal His-tagged (enzyme)
chain: MIFTKEPAHVFYVLVSAFRSNLCDEVNMSRHRHMVSTLRAAPGLYGSVESTDLTGCYREAISSAPTEEKTVRVRCKDKAQALNVARLACNEWEQDCVLVYKSQTHTAGLVYAKGIDGYKAERLPGSFQEVPKGAPLQGCFTIDEFGRRWQVQ
notes: S-adenosylmethionine lyase (SAMase) of bacteriophage T3, UniProt P07693; gene synthesized de novo with six His codons at the 3' end; anticipated monomer size around 17 kDa; Dimer by SEC, cross-linking and cryo-EM; also called T3 SAMase; 6×His-tagged SAMase; not shown: His6, C-terminal, kept
On to B1, for which, in series [4], the stoichiometry N (in general, a count of units in the complex or per binding partner) was found to be 2. Besides, in series [5], the binding result was “binds”.
Take B2: in series [6], the “stoichiometry N” value turned out to be 4.

For the origin of these results see publication PMC8406200, “SAMase of Bacteriophage T3 Inactivates Escherichia coli’s Methionine S-Adenosyltransferase by Forming Heteropolymers” (mBio, 2021).
